Publication PMC7479175, “Selection of Potent Inhibitors of Soluble Epoxide Hydrolase for Usage in Veterinary Medicine” (Frontiers in Veterinary Science, 2020)

Columns and labels:
sEH = conditions: non-selective pan-esterase inhibitor used at 100 μM; ref [18]; cited from earlier work
Cat sEH [1] = target: T1, Cat sEH (Felis catus, UniProt A0ABI7ZL20); assay: Primary screen (end point) of the sEH inhibitor library, PHOME substrate; format: biochemical; conditions: read-out: Cat sEH Inhibition (%) P.
T1 sequence (A0ABI7ZL20 entry or part of it): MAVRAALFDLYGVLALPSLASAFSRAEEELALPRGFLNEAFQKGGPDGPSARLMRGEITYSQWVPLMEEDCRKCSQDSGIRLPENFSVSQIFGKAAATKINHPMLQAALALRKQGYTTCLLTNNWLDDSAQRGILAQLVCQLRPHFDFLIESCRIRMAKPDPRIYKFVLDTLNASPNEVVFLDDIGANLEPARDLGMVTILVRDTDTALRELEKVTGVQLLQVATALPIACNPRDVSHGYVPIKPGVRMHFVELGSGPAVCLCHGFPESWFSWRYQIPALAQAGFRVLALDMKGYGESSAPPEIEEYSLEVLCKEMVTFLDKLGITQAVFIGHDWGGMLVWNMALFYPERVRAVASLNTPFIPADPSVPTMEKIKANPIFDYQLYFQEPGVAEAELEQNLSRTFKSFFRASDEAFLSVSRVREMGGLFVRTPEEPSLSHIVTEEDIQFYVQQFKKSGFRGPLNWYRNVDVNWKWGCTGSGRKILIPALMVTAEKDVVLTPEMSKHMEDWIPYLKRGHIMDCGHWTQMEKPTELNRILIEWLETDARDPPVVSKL
Description: (§1) Primary screening of the library was performed with an inhibitor concentration of 100 nM using PHOME as substrate ([22]). […] The plates were then mixed and incubated at 30°C for 5 min. Across each plate, 30 μL of the working substrate solution (270 μL of 5 mM PHOME solution in DMSO diluted with 3,680 μL of buffer) were added quickly to yield [S]final: 50 μM. Each plate was further incubated at room temperature (horse sEH: 60 min; cat sEH: 45 min; dog sEH: 30 min).

Dog sEH [2] = target: T2, Dog sEH (Canis lupus familiaris, UniProt A0A8I3NJL8); assay: as above; format: biochemical; conditions: [I] = 100 nM, primary end-point screening
T2 sequence (A0A8I3NJL8 1-556): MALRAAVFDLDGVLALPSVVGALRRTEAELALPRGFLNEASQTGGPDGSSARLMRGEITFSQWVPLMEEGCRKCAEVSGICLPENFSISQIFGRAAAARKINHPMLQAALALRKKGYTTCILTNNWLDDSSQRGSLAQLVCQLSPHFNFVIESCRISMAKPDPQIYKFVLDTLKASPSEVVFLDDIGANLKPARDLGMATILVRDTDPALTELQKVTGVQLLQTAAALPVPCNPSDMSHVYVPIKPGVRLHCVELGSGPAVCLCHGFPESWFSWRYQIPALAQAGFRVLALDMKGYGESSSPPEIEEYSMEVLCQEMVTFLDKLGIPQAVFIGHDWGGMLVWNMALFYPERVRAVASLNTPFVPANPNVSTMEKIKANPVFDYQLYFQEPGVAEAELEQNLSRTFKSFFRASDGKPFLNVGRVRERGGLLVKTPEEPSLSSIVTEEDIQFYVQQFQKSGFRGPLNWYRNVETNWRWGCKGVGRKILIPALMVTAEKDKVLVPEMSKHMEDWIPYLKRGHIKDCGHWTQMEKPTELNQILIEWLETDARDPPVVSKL
Description: as §1

Horse sEH [3] = target: T3, Horse sEH (Equus caballus, UniProt F7C407); assay: as above; format: biochemical; conditions: [I] = 100 nM, primary end-point screening
T3 sequence (F7C407 entry or part of it): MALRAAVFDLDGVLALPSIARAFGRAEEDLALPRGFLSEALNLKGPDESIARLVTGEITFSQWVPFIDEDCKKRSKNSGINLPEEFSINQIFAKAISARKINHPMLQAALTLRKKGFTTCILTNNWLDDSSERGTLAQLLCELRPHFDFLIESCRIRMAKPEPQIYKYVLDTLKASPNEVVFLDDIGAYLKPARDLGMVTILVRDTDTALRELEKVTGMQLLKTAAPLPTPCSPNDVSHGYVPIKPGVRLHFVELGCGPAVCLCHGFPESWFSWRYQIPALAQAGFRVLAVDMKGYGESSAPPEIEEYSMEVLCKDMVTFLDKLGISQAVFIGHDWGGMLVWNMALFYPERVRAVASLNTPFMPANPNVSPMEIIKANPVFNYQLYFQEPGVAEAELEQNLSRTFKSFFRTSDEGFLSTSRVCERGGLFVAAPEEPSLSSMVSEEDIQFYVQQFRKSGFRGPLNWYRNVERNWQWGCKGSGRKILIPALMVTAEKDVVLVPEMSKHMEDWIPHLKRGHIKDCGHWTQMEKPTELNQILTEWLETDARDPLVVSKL
Description: as §1

Horse sEH [4] = target: T3, Horse sEH; assay: Secondary screen (kinetic mode), PHOME substrate; format: biochemical; conditions: [I] = 100 nM, secondary kinetic mode screening
Cat sEH [5] = target: T1, Cat sEH; assay: Secondary screen (kinetic mode), PHOME substrate; format: biochemical; conditions: read-out: Cat sEH Inhibition (%) S.
Dog sEH [6] = target: T2, Dog sEH; assay: Secondary screen (kinetic mode), PHOME substrate; format: biochemical; conditions: [I] = 100 nM, secondary kinetic mode screening
[7] = target: sEH activity from liver cytosol of Cow (Bos taurus, UniProt Q17QK4); assay: sEH inhibition potency (IC50), radioactive assay with [3H]t-DPPO, liver cytosol; format: biochemical; conditions: [3H]t-DPPO ([S]final = 5 μM) as substrate
Chain of sEH activity from liver cytosol of Cow (Q17QK4 entry or part of it): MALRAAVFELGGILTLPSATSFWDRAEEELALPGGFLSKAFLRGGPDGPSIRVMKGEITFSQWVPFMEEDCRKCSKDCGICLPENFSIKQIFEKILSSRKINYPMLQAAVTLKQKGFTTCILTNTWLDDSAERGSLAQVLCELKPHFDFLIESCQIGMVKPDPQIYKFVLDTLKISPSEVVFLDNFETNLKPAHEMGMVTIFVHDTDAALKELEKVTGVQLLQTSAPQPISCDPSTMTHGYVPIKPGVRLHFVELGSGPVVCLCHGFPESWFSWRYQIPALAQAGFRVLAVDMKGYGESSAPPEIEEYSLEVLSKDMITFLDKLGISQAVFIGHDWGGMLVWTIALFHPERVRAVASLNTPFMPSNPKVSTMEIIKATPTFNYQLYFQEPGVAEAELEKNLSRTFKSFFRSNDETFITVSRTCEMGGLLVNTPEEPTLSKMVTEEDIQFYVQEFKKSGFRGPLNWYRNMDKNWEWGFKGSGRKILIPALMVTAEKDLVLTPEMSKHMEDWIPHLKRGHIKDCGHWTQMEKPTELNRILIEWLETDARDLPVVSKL
From the text: (§2) Fresh liver tissues samples (5–30 g) were collected promptly after death from healthy adult cat, dog and horse euthanized for reasons unrelated to this study, and whose bodies were given to science by the owners in line with federal regulations and protocol approved by the Institutional Animal Care and Use Committee at University of California Davis. Similarly, tissues from the other animals tested herein were collected from healthy animals immediately after being slaughter at the university abattoir. Because no animals were directly used or killed for this study, sample collections were exempted from approval by the Institutional Animal Care and Use Committee of the University of California Davis and Michigan State University. […] The tissues were flash-frozen in liquid nitrogen following removal, and then kept at −80°C until used. After thawing on ice, the samples were homogenized in chilled sodium phosphate buffer (20 mM pH 7.4) containing 5 mM EDTA, 1 mM DTT and 1 mM PMSF (tissue weight:buffer volume ratio 1:4). These homogenates were centrifuged at 100,000 g for 60 min at 4°C. The supernatant (the cytosolic fraction) was separated from the pellet, aliquoted and flash frozen in liquid nitrogen, then kept frozen at −80°C until usage.
(§3) The IC50 values reported herein were determined using either a fluorescent based assay (CMNPC as substrate) for purified enzyme preparations or a radioactive based assay ([^3H]t-DPPO as substrate) for crude enzyme preparations ([20]). The fluorescent assay was used with the purified proteins. […] The substrate (CMNPC) was then added ([S]final = 5 μM). […] The radioactive […] assay was used with the liver crude extracts. Extracts were incubated with inhibitors ([I]final = 1–1,000 nM) at 30° C for 5 min in sodium phosphate buffer (pH 7.4) containing 0.1 mg/mL of BSA and 1% of DMSO, prior to substrate introduction ([^3H]t-DPPO [S]final: 50 μM; ~12,000 dpm/assay). The enzymes were incubated at 30°C for 10 min, and the reaction was quenched by the addition of 60 μL methanol and 200 μL isooctane, which extracts the remaining epoxide from the aqueous phase. […] Assays were performed in triplicate.

[8] = target: T4, sEH activity from liver cytosol of Hamster (Mesocricetus auratus, UniProt A0A1U7QV09); assay: as above; format: biochemical; conditions: [3H]t-DPPO ([S]final = 5 μM) as substrate
T4 sequence (A0A1U7QV09 1-554): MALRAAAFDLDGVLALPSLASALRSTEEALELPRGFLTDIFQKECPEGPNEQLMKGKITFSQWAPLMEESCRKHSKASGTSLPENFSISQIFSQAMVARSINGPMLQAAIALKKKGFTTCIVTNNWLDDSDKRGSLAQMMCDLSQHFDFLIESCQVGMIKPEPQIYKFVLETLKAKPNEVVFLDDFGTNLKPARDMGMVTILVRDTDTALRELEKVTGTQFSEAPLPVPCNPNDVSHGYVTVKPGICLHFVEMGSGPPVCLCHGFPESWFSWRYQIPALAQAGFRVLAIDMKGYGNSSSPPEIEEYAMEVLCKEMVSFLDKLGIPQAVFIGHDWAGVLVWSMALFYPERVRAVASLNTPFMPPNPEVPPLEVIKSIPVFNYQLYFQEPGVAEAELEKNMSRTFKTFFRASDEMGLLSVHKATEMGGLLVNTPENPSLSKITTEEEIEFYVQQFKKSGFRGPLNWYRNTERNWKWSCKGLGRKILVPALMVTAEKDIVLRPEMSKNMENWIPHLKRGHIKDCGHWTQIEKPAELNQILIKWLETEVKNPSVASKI
From the text: as §2, §3

Microsomal stability [9] = format: in vitro ADME, horse; conditions: 1 μM inhibitor, microsomes 1 mg/mL, 37°C, 30 min, compound remaining, average ± SD (n = 3)
Description: (§4) The stability of the sEH inhibitors was determined using liver microsomes as described ([24]). […] After 30 min at 37°C, the reaction was stopped by the addition of one volume of methanol containing CUDA (200 nM) as surrogate. The amount of remaining inhibitor was determined by LC/MS/MS. The stability is reported as a percentage of compound remaining after 30 min in these conditions.
(§5) Mass spectrometry analyses were performed using a Waters Quattro Premier triple quadrupole tandem mass spectrometer (Micromass, Manchester, UK) interfaced to an electrospray ionization (ESI) source. The MS was coupled with a Waters Acquity UPLC (Waters, Milford, MA, USA). A Varian Pursuit5 C18 RP HPLC column (150 mm × 2.1 mm, particle size 5 μm) was used to separate the analytes. […] The source and the desolvation temperatures were set at 120 and 300°C, respectively. […] Dwell time was set to 0.1 s.

Microsomal stability [10] = format: in vitro ADME, cat
Description: as §4, §5

Microsomal stability [11] = format: in vitro ADME, dog; conditions: 1 μM inhibitor, microsomes 1 mg/mL, 37°C, 30 min, compound remaining, average ± SD (n = 3)
Description: as §4, §5

CCOP(=O)(OCC)Oc1ccc([N+](=O)[O-])cc1 [Paraoxon]
inhibition of sEH (sEH): does not inhibit sEH

CC1CCCCC1NC(=O)Nc1ccccc1 (centres unmarked) [Siduron]
inhibition at 0.1 µM (Cat sEH [1]): 93%
Dog sEH Inhibition (%) P. (Dog sEH [2]): < 90%
Horse sEH Inhibition (%) P. (Horse sEH [3]): 92%
Horse sEH Inhibition (%) S. (Horse sEH [4]): 81%
inhibition at 0.1 µM (Cat sEH [5]): 77%
Dog sEH Inhibition (%) S. (Dog sEH [6]): 43%

O=C(O)CCCCCCCCCCCNC(=O)NC12CC3CC(CC(C3)C1)C2 [compound 700]
inhibition at 0.1 µM (Dog sEH [2]; read-out: Dog sEH Inhibition (%) P.): 92%
inhibition at 0.1 µM (Horse sEH [3]; read-out: Horse sEH Inhibition (%) P.): 94%
inhibition at 0.1 µM (Horse sEH [4]; read-out: Horse sEH Inhibition (%) S.): 85%
inhibition at 0.1 µM (Dog sEH [6]; read-out: Dog sEH Inhibition (%) S.): 80%
IC50 [7]: 6 nM
IC50 [8]: 5 nM
Stability (% without microsomes) Horse liver microsomes NADPH + (Microsomal stability [9]; with NADPH): 96 ± 9%
Stability (% without microsomes) Horse liver microsomes NADPH – (Microsomal stability [9]; without NADPH): 114 ± 15%
Stability (% without microsomes) Cat liver microsomes NADPH + (Microsomal stability [10]; 1 μM inhibitor, microsomes 1 mg/mL, with NADPH, 37°C, 30 min, compound remaining, average ± SD (n = 3)): 28 ± 3%
Stability (% without microsomes) Cat liver microsomes NADPH – (Microsomal stability [10]; 1 μM inhibitor, microsomes 1 mg/mL, without NADPH, 37°C, 30 min, compound remaining, average ± SD (n = 3)): 105 ± 11%
metabolism in cat liver microsomes (in words) (Microsomal stability [10]; in the presence of NADPH): quickly transformed
Stability (% without microsomes) Dog liver microsomes NADPH + (Microsomal stability [11]; with NADPH): 66 ± 9%
Stability (% without microsomes) Dog liver microsomes NADPH – (Microsomal stability [11]; without NADPH): 94 ± 6%
